18 compounds from PubChem BioAssay AID192 (DTP/NCI, 2004) can be followed below.

In the experiment the test system is BDF1 mice, B16 melanoma ip, median survival T/C. Kind of experiment: NCI In Vivo Anticancer Drug Screen. Data for tumor model B16 Melanoma (intraperitoneal) in B6D2F1 (BDF1) mice. As to conditions: endpoint: median survival time, higher = longer survival. A digest of the protocol: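 Values are ratios of treated (T) to vehicle-control (C) measurements of survival or tumor size in tumor-bearing mice.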

[1] abbreviates: dose: 50.0 mg/kg/injection, schedule: Q01DX009 (ip), vehicle: saline with Tween-80.
The mark [2] stands for this setting: dose: 100.0 mg/kg/injection, schedule: Q01DX009 (ip), vehicle: saline with Tween-80.
Where [3] appears, read: dose: 200.0 mg/kg/injection, schedule: Q01DX009 (ip), vehicle: saline with Tween-80.
Where [4] appears, read: dose: 25.0 mg/kg/injection, schedule: Q04DX003 (ip), vehicle: saline with Tween-80.
Where [5] appears, read: dose: 25.0 mg/kg/injection, schedule: Q04DX003 (ip), vehicle: Klucel (hydroxypropylcellulose) (HPC).
[6] abbreviates: dose: 50.0 mg/kg/injection, schedule: Q04DX003 (ip), vehicle: Klucel (hydroxypropylcellulose) (HPC).
Where [7] appears, read: dose: 100.0 mg/kg/injection, schedule: Q04DX003 (ip), vehicle: Klucel (hydroxypropylcellulose) (HPC).
The mark [8] stands for this setting: dose: 400.0 mg/kg/injection, schedule: Q04DX003 (ip), vehicle: Klucel (hydroxypropylcellulose) (HPC).
The mark [9] stands for this setting: dose: 100.0 mg/kg/injection, schedule: Q01DX009 (ip), vehicle: Klucel (hydroxypropylcellulose) (HPC).
Setting [10] is: dose: 200.0 mg/kg/injection, schedule: Q01DX009 (ip), vehicle: Klucel (hydroxypropylcellulose) (HPC).
[11] abbreviates: dose: 400.0 mg/kg/injection, schedule: Q01DX009 (ip), vehicle: Klucel (hydroxypropylcellulose) (HPC).

Where “and” joins values, the source holds several entries; their conditions need not be identical. Equal entries are not always repeated. Toxic doses and inconclusive results are not listed.

On to `ClC(Cl)(Cl)C(N1CCN(c2ccccc2)CC1)N1CCN(c2ccccc2)CC1`, for which the T/C was 113 % of control under setting [1]; 96 % of control under setting [2]; 112 % of control under setting [3]; 91 % of control (dose: 400.0 mg/kg/injection, schedule: Q01DX009 (ip), vehicle: saline with Tween-80).
On to `Nc1ccc(N(CCCl)CCN(CCCl)c2ccc(N)cc2)cc1`, for which the T/C (dose: 0.36 mg/kg/injection, schedule: Q01DX009 (ip), vehicle: saline) was 108 % of control; the T/C (dose: 0.75 mg/kg/injection, schedule: Q01DX009 (ip), vehicle: saline) was 113 % of control; the T/C (dose: 1.5 mg/kg/injection, schedule: Q01DX009 (ip), vehicle: saline) is 113 % of control; the T/C (dose: 3.0 mg/kg/injection, schedule: Q01DX009 (ip), vehicle: saline) was 119 % of control.
For the compound `CNC(=O)N(C)c1cc(N(C)C)nc(OC)n1`, the T/C was 101 % of control (dose: 5.0 mg/kg/injection, schedule: Q01DX009 (ip), vehicle: Klucel (hydroxypropylcellulose) (HPC)); 93 % of control (dose: 10.0 mg/kg/injection, schedule: Q01DX009 (ip), vehicle: Klucel (hydroxypropylcellulose) (HPC)); 94 % of control (dose: 20.0 mg/kg/injection, schedule: Q01DX009 (ip), vehicle: Klucel (hydroxypropylcellulose) (HPC)).
Turning to `CC1(C)OC2C(COC(=O)c3ccc([N+](=O)[O-])cc3)OC(NC(=O)N(CCCl)N=O)C2O1` (stereo not drawn), the T/C is 158 % of control (dose: 6.25 mg/kg/injection, schedule: Q01DX009 (ip), vehicle: saline with Tween-80); 215 % of control (dose: 12.5 mg/kg/injection, schedule: Q01DX009 (ip), vehicle: saline with Tween-80); 204 % of control and 283 % of control (dose: 25.0 mg/kg/injection, schedule: Q01DX009 (ip), vehicle: saline with Tween-80); 206 % of control under setting [1].
In the case of `CCC(CC)OCCN1CCN(CCCN2c3ccccc3Sc3ccc(C(F)(F)F)cc32)CC1`, the T/C was 109 % of control (dose: 0.5 mg/kg/injection, schedule: Q01DX009 (ip), vehicle: saline with Tween-80) and 103 % of control (dose: 1.0 mg/kg/injection, schedule: Q01DX009 (ip), vehicle: saline with Tween-80).
`CN(C)CCCN=Cc1ccccc1O.CN(C)CCCN=Cc1ccccc1O.[Ni+2]`: the T/C was 92 % of control (dose: 6.25 mg/kg/injection, schedule: Q04DX003 (ip), vehicle: saline with Tween-80) and 86 % of control under setting [4].
For the compound `Cc1cc(SCC(=O)c2ccc(Br)cc2)cc(C)[o+]1`, the T/C reads like this: (dose: 6.25 mg/kg/injection, schedule: Q01DX009 (ip), vehicle: saline) 111 % of control and 122 % of control; (dose: 12.5 mg/kg/injection, schedule: Q01DX009 (ip), vehicle: saline) 112 % of control and 119 % of control; (dose: 25.0 mg/kg/injection, schedule: Q01DX009 (ip), vehicle: saline) 98 % of control and 118 % of control; (dose: 50.0 mg/kg/injection, schedule: Q01DX009 (ip), vehicle: saline) 106 % of control; (dose: 100.0 mg/kg/injection, schedule: Q01DX009 (ip), vehicle: saline) 95 % of control.
As for `CC(CCl)C(C#N)(c1ccccc1)c1ccccc1` (stereo not drawn), the T/C by setting is: under setting [1], 93 % of control; under setting [2], 90 % of control; under setting [3], 102 % of control.
Turning to `C=CCOCC(O)CN(C)c1ccccc1` (stereo not drawn), the T/C is 92 % of control under setting [5]; 95 % of control under setting [6]; 89 % of control and 90 % of control under setting [7]; 88 % of control under setting [8].
For `CCOC(=O)c1c(NC(=O)CCC(=O)Nc2sc(C)c(C)c2C(=O)OCC)sc(C)c1C`, the T/C runs as follows: (dose: 0.09 mg/kg/injection, schedule: Q01DX009 (ip), vehicle: Klucel (hydroxypropylcellulose) (HPC)) 100 % of control; (dose: 0.19 mg/kg/injection, schedule: Q01DX009 (ip), vehicle: Klucel (hydroxypropylcellulose) (HPC)) 95 % of control; (dose: 0.39 mg/kg/injection, schedule: Q01DX009 (ip), vehicle: Klucel (hydroxypropylcellulose) (HPC)) 100 % of control; (dose: 0.78 mg/kg/injection, schedule: Q01DX009 (ip), vehicle: Klucel (hydroxypropylcellulose) (HPC)) 89 % of control; (dose: 1.56 mg/kg/injection, schedule: Q01DX009 (ip), vehicle: Klucel (hydroxypropylcellulose) (HPC)) 95 % of control.
In the case of `O=C(Nc1ccccc1)N(Cc1ccccc1)c1ccccc1`, the T/C reads like this: (dose: 50.0 mg/kg/injection, schedule: Q04DX009 (ip), vehicle: Klucel (hydroxypropylcellulose) (HPC)) 104 % of control; (dose: 100.0 mg/kg/injection, schedule: Q04DX009 (ip), vehicle: Klucel (hydroxypropylcellulose) (HPC)) 104 % of control; (dose: 200.0 mg/kg/injection, schedule: Q04DX003 (ip), vehicle: carboxymethylcellulose (CMC)) 105 % of control; (dose: 200.0 mg/kg/injection, schedule: Q04DX009 (ip), vehicle: Klucel (hydroxypropylcellulose) (HPC)) 93 % of control.
Regarding `CCCCN(CCCC)C(=O)c1[nH]cnc1/N=N\N(C)C`, the T/C was 110 % of control (dose: 12.5 mg/kg/injection, schedule: Q04DX003 (ip), vehicle: saline with Tween-80); 92 % of control under setting [4]; 117 % of control (dose: 50.0 mg/kg/injection, schedule: Q04DX003 (ip), vehicle: saline with Tween-80); 93 % of control (dose: 100.0 mg/kg/injection, schedule: Q04DX003 (ip), vehicle: saline with Tween-80).
Consider `NC(=O)c1ccccc1NC(=O)Nc1ccccc1`, for which the T/C reads like this: under setting [9], 89 % of control; under setting [10], 91 % of control; under setting [11], 89 % of control.
As to `CCC(C(C)N1CC(=O)NC(=O)C1)N1CC(=O)NC(=O)C1` (stereo not drawn), the T/C was 107 % of control (dose: 0.06 mg/kg/injection, schedule: Q01DX009 (ip), vehicle: Klucel (hydroxypropylcellulose) (HPC)); 108 % of control (dose: 0.13 mg/kg/injection, schedule: Q01DX009 (ip), vehicle: Klucel (hydroxypropylcellulose) (HPC)); 109 % of control and 124 % of control (dose: 0.25 mg/kg/injection, schedule: Q01DX009 (ip), vehicle: Klucel (hydroxypropylcellulose) (HPC)); 105 % of control (dose: 0.25 mg/kg/injection, schedule: Q04DX003 (ip), vehicle: Klucel (hydroxypropylcellulose) (HPC)); 120 % of control (dose: 0.5 mg/kg/injection, schedule: Q01DX009 (ip), vehicle: Klucel (hydroxypropylcellulose) (HPC)); 114 % of control (dose: 0.5 mg/kg/injection, schedule: Q04DX003 (ip), vehicle: Klucel (hydroxypropylcellulose) (HPC)). Also, the T/C was 115 % of control and 121 % of control (dose: 1.0 mg/kg/injection, schedule: Q04DX003 (ip), vehicle: Klucel (hydroxypropylcellulose) (HPC)); 156 % of control (dose: 8.0 mg/kg/injection, schedule: Q04DX003 (ip), vehicle: Klucel (hydroxypropylcellulose) (HPC)).
As for `CCCCCCCCCCCCCCCCCCNC(=O)Nc1cc(C)ccc1C`, the T/C runs as follows: (dose: 25.0 mg/kg/injection, schedule: Q01DX009 (ip), vehicle: gum acacia) 100 % of control; (dose: 50.0 mg/kg/injection, schedule: Q01DX009 (ip), vehicle: gum acacia) 93 % of control; (dose: 100.0 mg/kg/injection, schedule: Q01DX009 (ip), vehicle: gum acacia) 107 % of control.
`O=C1CCC(N2C(=O)c3ccccc3C2=O)C(=O)N1` (stereo not drawn): the T/C (dose: 25.0 mg/kg/injection, schedule: Q01DX009 (ip), vehicle: Klucel (hydroxypropylcellulose) (HPC)) was 100 % of control; the T/C under setting [5] is 99 % of control; the T/C (dose: 50.0 mg/kg/injection, schedule: Q01DX009 (ip), vehicle: Klucel (hydroxypropylcellulose) (HPC)) is 102 % of control; the T/C under setting [6] is 106 % of control; the T/C under setting [9] was 94 % of control; the T/C under setting [7] was 94 % of control. The T/C is, setting by setting: under setting [10], 100 % of control; (dose: 200.0 mg/kg/injection, schedule: Q04DX003 (ip), vehicle: Klucel (hydroxypropylcellulose) (HPC)) 99 % of control; under setting [11], 102 % of control; under setting [8], 94 % of control.
As for `Cc1c(CCl)c(C)c(CCl)c(C)c1CCl`, the T/C reads like this: (dose: 3.0 mg/kg/injection, schedule: Q01DX009 (ip), vehicle: Klucel (hydroxypropylcellulose) (HPC)) 102 % of control; (dose: 6.0 mg/kg/injection, schedule: Q01DX009 (ip), vehicle: Klucel (hydroxypropylcellulose) (HPC)) 100 % of control; (dose: 12.0 mg/kg/injection, schedule: Q01DX009 (ip), vehicle: Klucel (hydroxypropylcellulose) (HPC)) 100 % of control.
`CCCCCCCCCCCCOc1ccccn1`: the T/C reads like this: under setting [10], 88 % of control; under setting [11], 86 % of control.
